Laboratory results published in patent US9732046B2, “Substituted 1,2,4-triazines as tubulin inhibitors” (YM Biosciences Australia Pty Ltd., priority 2003, dated 2017).

Tests used:
PC3 (Prostate Cancer) = assay: Cellular growth inhibition assay (MTT), PC3; type: cell-based; settings: Table 1, 40 hr incubation
Procedure, shortened: (§1)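 Late-log-phase cells (K562 in RPMI, DU145 in DMED, PC3 in F12K; all 10% FBS, Glutamx, plus MEM non-essential amino acids for DU145 and PC3) were plated at 50000–200,000 cell/mL (1.1× final) with compounds added at 10× final. After 40 hr at 37° C, 5% CO2, MTT was added for 6 hours, then SDS/HCl lysis overnight and absorbance read at 590 nm.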

DU145 (Prostate Cancer) = assay: Cellular growth inhibition assay (MTT), DU145; type: cell-based; settings: Homo sapiens, DU-145, Table 1, 40 hr incubation
Procedure, shortened: as §1

[1] = system: Tubulin (microtubule protein); assay: Tubulin assay (turbidometric assay of microtubule assembly); type: biochemical; settings: Table 1; 50 μM; absorbance at 340 nm, 37° C.
Experimental: Turbidometric assays of microtubule assembly were performed by incubating microtubule protein in cuvettes at 37° C. in a thermostatically controlled spectrophotometer measuring the change in absorbance at 340 nm over time. The microtubule protein was incubated with the each test compound at 0° C. and polymerisation was initiated by addition of 1 mM GTP, prior to heating to 37° C.

[2] = molecular target: T1, TelJak3 (BaF3 TELJAK cells, TEL/JAK3 fusion) (Homo sapiens, UniProt P52333); assay: Cellular growth inhibition assay (MTT), BaF3 TEL:JAK3 cell line; type: cell-based; settings: Table 1, 40 hr incubation
T1 construct: For JAK3 Sa1 I/Not I cleaved kinase domain PCR product was ligated with BamH I/Sa1 I cleaved TELproduct; expressed in transfected cells; host or cells: BaF3 cells bearing the pTET-off plasmid, transfected with pTELJAK3 (pTRE2 vector); the other entry of the earlier key: ETV6 (P41212, Transcription factor ETV6)
T1 sequence (P52333 with tags, fused parts or gaps): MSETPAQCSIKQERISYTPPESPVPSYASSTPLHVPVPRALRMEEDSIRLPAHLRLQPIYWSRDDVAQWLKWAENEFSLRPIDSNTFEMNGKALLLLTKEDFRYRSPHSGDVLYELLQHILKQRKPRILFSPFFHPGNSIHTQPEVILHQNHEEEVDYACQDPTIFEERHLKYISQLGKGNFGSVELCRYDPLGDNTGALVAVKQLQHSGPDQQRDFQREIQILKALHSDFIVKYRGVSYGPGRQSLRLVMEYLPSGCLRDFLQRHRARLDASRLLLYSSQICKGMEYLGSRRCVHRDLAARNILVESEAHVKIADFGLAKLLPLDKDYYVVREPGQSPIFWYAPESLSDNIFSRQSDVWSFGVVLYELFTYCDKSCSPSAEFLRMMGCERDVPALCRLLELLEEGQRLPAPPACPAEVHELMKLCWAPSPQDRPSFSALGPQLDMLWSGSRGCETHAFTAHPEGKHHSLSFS

[3] = molecular target: T2, TelJak2 (BaF3 TELJAK cells, TEL/Jak2 fusion) (Homo sapiens, UniProt O60674); assay: Cellular growth inhibition assay (MTT), BaF3 TEL:JAK2 cell line; type: cell-based; settings: Table 1, 40 hr incubation
T2 construct: The regions encompassing the kinase domain of JAK2 (nucleotides 2994-3914); expressed in transfected cells; host or cells: BaF3 cells bearing the pTET-off plasmid, transfected with pTELJAK2 (pTRE2 vector); the other entry of the earlier key: ETV6 (P41212, Transcription factor ETV6)
T2 sequence (O60674 with tags, fused parts or gaps): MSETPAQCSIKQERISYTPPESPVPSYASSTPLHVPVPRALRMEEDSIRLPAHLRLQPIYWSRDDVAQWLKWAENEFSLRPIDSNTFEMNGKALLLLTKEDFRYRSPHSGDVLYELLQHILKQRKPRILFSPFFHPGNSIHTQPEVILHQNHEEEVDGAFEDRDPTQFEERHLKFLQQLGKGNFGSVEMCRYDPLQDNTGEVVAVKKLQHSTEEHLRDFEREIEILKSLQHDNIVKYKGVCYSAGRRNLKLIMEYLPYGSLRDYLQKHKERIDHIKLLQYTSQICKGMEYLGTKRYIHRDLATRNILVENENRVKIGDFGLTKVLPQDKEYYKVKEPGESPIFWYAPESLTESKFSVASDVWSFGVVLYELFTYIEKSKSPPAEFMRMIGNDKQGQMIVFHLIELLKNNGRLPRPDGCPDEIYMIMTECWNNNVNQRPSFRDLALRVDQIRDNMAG

[4] = system: K562 (Chronic Myeloid Leukemia); assay: Cellular growth inhibition assay (MTT), K562; type: cell-based; settings: Homo sapiens, Table 1, 40 hr incubation
Procedure, shortened: as §1

Structure (SMILES) | inhibition at 20 µM (PC3 (Prostate Cancer)) [%] | inhibition at 20 µM (DU145 (Prostate Cancer)) [%] | Tubulin inhibition of tubulin polymerisation [1] | inhibition at 20 µM [2] [%] | inhibition at 20 µM [3] [%] | inhibition at 20 µM [4] [%]
CCC[C@H](Nc1nc(-c2ccc(NC(=O)NCC)c(OC)c2)ncc1C)c1cccnc1 | > 50 | > 50 | + (compounds which inhibited tubulin polymerisation by greater than 50% at 50 μM) | > 50 | > 50 | > 50
CCCC(Nc1cncc(-c2ccc(O)c(OC)c2)c1)c1ccccc1 (stereo not drawn) | > 50 | > 50 | + (compounds which inhibited tubulin polymerisation by greater than 50% at 50 μM) | > 50 | > 50 | > 50
CCCC(Nc1cncc(-c2ccc(OCCCCN3CCCCC3)c(OC)c2)n1)c1ccccc1 (stereo not drawn) | > 50 | > 50 | + (compounds which inhibited tubulin polymerisation by greater than 50% at 50 μM) | > 50 | > 50 | > 50
CCCC(Nc1cncc(-c2ccc(CO)cc2)n1)c1ccccc1 (stereo not drawn) | > 50 | > 50 | + (compounds which inhibited tubulin polymerisation by greater than 50% at 50 μM) | > 50 | > 50 | > 50
CCCC(Nc1cncc(-c2ccc(OCCCO)c(OC)c2)n1)c1ccccc1 (stereo not drawn) | > 50 | > 50 | + (compounds which inhibited tubulin polymerisation by greater than 50% at 50 μM) | > 50 | > 50 | > 50
CCCC(Nc1cncc(-c2ccc(NC(=O)NCCN(C)C)c(OC)c2)n1)c1cccnc1 (stereo not drawn) | > 50 | > 50 | + (compounds which inhibited tubulin polymerisation by greater than 50% at 50 μM) | > 50 | > 50 | > 50
CCNC(=O)Nc1ccc(-c2cncc(N[C@@H](COC)c3ccccc3)n2)cc1OC | > 50 | > 50 | + (compounds which inhibited tubulin polymerisation by greater than 50% at 50 μM) | > 50 | > 50 | > 50
CCC[C@H](Nc1ccnc(-c2ccc(NC(=O)NCC)c(OC)c2)n1)c1cccnc1 | > 50 | > 50 | + (compounds which inhibited tubulin polymerisation by greater than 50% at 50 μM) | > 50 | > 50 | > 50
CCCC(Nc1cncc(-c2ccc(NC(=O)NCC)c(C)c2)n1)c1ccccn1 (stereo not drawn) | > 50 | > 50 | + (compounds which inhibited tubulin polymerisation by greater than 50% at 50 μM) | > 50 | > 50 | > 50
CCCC(Nc1cncc(-c2ccc(OCCCCO)c(OC)c2)n1)c1ccccc1 (stereo not drawn) | > 50 | > 50 | + (compounds which inhibited tubulin polymerisation by greater than 50% at 50 μM) | > 50 | > 50 | > 50
CCCC(Nc1cncc(-c2ccc(NC(=O)NCC)c(OC)c2)n1)c1cnccc1C (stereo not drawn) | > 50 | > 50 | + (compounds which inhibited tubulin polymerisation by greater than 50% at 50 μM) | > 50 | > 50 | > 50
CCCC(Nc1cncc(-c2ccc(NC(=O)NCC)c(OC)c2)n1)c1cccc(F)c1 (stereo not drawn) | > 50 | > 50 | + (compounds which inhibited tubulin polymerisation by greater than 50% at 50 μM) | > 50 | > 50 | > 50
CCC[C@H](Nc1cncc(-c2ccc(NC(=O)NCC)c(C)c2)n1)c1cccnc1 | > 50 | > 50 | + (compounds which inhibited tubulin polymerisation by greater than 50% at 50 μM) | > 50 | > 50 | > 50
CCCC(Nc1cncc(-c2ccc(NC(=O)NCC)c(CC)c2)n1)c1cccnc1 (stereo not drawn) | > 50 | > 50 | + (compounds which inhibited tubulin polymerisation by greater than 50% at 50 μM) | > 50 | > 50 | > 50
CCCC(Nc1cncc(-c2ccc(NC(=O)NCC)c(C)c2)n1)c1cnccc1C (stereo not drawn) | > 50 | > 50 | + (compounds which inhibited tubulin polymerisation by greater than 50% at 50 μM) | > 50 | > 50 | > 50
CCCC(Nc1cncc(-c2ccc(OCCCn3ccnc3)c(OC)c2)n1)c1ccccc1 (stereo not drawn) | > 50 | > 50 | + (compounds which inhibited tubulin polymerisation by greater than 50% at 50 μM) | > 50 | > 50 | > 50
CCCC(Nc1cncc(-c2ccc(OCCCN(CC)CC)c(OC)c2)n1)c1ccccc1 (stereo not drawn) | > 50 | > 50 | + (compounds which inhibited tubulin polymerisation by greater than 50% at 50 μM) | > 50 | > 50 | > 50
CCCC(Nc1cncc(-c2ccc(CN3CCCC3)cc2)n1)c1ccccc1 (stereo not drawn) | > 50 | > 50 | + (compounds which inhibited tubulin polymerisation by greater than 50% at 50 μM) | > 50 | > 50 | > 50
CCCC(Nc1nc(-c2ccc(NC(=O)NCC)c(OC)c2)cnc1C)c1ccccc1 (stereo not drawn) | > 50 | > 50 | + (compounds which inhibited tubulin polymerisation by greater than 50% at 50 μM) | > 50 | > 50 | > 50
CCC[C@H](Nc1cncc(-c2ccc(NC(=O)NCC)c(OC)c2)n1)c1ccccn1 | > 50 | > 50 | + (compounds which inhibited tubulin polymerisation by greater than 50% at 50 μM) | > 50 | > 50 | > 50
CCCC(Nc1cncc(-c2ccc(NC(=O)NCC)c(C)c2)n1)c1cccnc1 (stereo not drawn) | > 50 | > 50 | + (compounds which inhibited tubulin polymerisation by greater than 50% at 50 μM) | > 50 | > 50 | > 50
CCCC(Nc1cncc(-c2ccc(CNC(=O)C3CCNCC3)cc2)n1)c1ccccc1 (stereo not drawn) | > 50 | > 50 | + (compounds which inhibited tubulin polymerisation by greater than 50% at 50 μM) | > 50 | > 50 | > 50
CCCC(Nc1nnc(C)c(-c2ccc(O)c(OC)c2)n1)c1ccccc1 (stereo not drawn) | > 50 | > 50 | + (compounds which inhibited tubulin polymerisation by greater than 50% at 50 μM) | > 50 | > 50 | > 50
CCCC(Nc1cncc(-c2ccc(CN)cc2)n1)c1ccccc1 (stereo not drawn) | > 50 | > 50 | + (compounds which inhibited tubulin polymerisation by greater than 50% at 50 μM) | > 50 | > 50 | > 50
